# Paper PMC6138237, “Machine intelligence decrypts β-lapachone as an allosteric 5-lipoxygenase inhibitor” (Chemical Science, 2018)
# Where two headings read alike, the source gives them in different places.
# Key:
# 15-LO = 15-LO inhibition in intact human neutrophils; settings: read-out: IC50 (15-LO), without DTT
# 15-LO-2 = target: T1, 15-LO-2 (Homo sapiens, UniProt O15296); test: 15-LO-2 inhibition assay, Cerep (Method A, fluorometry); format: biochemical; settings: 5 µM
# T1 sequence (O15296 1-676): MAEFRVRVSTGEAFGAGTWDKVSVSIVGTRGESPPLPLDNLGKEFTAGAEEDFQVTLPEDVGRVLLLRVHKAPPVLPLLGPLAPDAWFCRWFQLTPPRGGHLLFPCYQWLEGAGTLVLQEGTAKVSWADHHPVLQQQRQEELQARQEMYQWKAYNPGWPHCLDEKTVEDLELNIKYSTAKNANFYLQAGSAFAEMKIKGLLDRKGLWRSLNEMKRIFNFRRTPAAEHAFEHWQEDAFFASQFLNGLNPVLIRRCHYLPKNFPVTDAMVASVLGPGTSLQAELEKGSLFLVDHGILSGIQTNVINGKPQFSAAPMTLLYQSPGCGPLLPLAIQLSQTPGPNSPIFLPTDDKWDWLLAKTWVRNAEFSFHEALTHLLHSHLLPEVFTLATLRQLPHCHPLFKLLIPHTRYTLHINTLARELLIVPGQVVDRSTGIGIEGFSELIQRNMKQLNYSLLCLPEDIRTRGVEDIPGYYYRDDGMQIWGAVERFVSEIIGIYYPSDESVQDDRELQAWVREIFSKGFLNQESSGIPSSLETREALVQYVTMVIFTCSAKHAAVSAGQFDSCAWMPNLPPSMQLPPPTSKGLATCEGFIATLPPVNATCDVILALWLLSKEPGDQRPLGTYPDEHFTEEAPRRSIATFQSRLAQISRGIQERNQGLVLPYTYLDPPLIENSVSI
# PLK1 = PLK1 (Homo sapiens, UniProt P53350); test: ExpresS Diversity Kinase Profile, Cerep (LANCE): PLK1; format: biochemical
# CDK2 = CDK2 (Homo sapiens, UniProt P24941); test: ExpresS Diversity Kinase Profile, Cerep (LANCE): CDK2; format: biochemical
# FGFR2 = FGFR2 (Homo sapiens, UniProt P21802); test: ExpresS Diversity Kinase Profile, Cerep (LANCE): FGFR2; format: biochemical
# SIK = SIK (Homo sapiens, UniProt P57059); test: ExpresS Diversity Kinase Profile, Cerep (LANCE): SIK; format: biochemical; settings: 150 µM
# EP3 = target: T2, EP3 (Homo sapiens, UniProt P43115); test: EP3 functional antagonist assay, Cerep (sulprostone 0.1 nM, impedance)
# T2 sequence (P43115 1-390): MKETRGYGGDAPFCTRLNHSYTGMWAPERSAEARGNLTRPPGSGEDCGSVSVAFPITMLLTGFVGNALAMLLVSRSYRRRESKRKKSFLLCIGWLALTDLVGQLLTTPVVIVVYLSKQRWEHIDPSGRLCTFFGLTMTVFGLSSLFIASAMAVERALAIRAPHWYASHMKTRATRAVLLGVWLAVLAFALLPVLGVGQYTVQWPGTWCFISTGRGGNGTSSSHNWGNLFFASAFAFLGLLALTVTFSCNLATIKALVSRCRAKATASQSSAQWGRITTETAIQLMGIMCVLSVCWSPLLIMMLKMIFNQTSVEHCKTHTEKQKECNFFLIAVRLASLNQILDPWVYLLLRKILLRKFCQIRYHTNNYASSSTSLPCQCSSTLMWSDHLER
# 5-LO = target: T3, 5-LO (Homo sapiens, UniProt P09917); test: 5-LO product formation in intact human neutrophils stimulated with A23187 plus arachidonic acid
# T3 sequence (P09917 1-674): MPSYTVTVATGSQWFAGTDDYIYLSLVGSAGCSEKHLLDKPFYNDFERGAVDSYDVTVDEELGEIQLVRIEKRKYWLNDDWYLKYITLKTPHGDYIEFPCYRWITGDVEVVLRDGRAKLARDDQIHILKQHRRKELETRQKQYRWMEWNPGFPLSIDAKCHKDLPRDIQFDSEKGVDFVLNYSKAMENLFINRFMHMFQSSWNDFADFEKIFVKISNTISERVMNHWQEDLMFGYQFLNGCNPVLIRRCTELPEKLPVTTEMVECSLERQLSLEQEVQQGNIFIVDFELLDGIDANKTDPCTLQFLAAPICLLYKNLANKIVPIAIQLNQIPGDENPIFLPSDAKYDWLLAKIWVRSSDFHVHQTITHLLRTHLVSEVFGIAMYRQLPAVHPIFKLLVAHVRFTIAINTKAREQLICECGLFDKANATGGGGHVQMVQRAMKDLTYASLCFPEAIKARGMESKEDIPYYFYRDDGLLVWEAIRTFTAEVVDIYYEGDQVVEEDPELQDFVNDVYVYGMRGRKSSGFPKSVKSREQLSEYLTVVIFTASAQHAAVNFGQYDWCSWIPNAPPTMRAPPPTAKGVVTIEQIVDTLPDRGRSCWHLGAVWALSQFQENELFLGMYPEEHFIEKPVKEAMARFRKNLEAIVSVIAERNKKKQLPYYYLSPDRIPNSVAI
# [1] = n = 2, read-out: % Inhibition of control values, Mean
# [2] = read-out: % Inhibition of control values, 1st measurement
# [3] = read-out: % Inhibition of control values, 2nd measurement
# [4] = Flag: Interference, read-out: % Inhibition of control values, 1st measurement
# [5] = Flag: Interference, read-out: % Inhibition of control values, 2nd measurement
# [6] = n = 2, Flag: Interference, read-out: % Inhibition of control values, Mean
# Chain of PLK1 (P53350 whole entry): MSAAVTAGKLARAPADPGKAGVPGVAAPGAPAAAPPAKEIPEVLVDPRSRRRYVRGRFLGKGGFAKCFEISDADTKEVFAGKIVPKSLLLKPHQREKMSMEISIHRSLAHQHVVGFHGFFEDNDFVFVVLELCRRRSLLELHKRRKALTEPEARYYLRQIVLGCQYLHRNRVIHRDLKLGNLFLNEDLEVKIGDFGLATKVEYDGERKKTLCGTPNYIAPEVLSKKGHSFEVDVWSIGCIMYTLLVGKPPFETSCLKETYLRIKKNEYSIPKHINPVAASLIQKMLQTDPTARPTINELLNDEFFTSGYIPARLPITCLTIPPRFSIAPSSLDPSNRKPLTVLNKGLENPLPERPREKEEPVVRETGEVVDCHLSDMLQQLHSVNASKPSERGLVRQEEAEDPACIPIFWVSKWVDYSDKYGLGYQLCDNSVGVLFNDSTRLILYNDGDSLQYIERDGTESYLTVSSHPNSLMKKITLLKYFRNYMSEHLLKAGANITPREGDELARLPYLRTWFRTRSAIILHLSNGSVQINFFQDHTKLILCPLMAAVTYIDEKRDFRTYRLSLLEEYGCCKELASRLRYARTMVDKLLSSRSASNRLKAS
# Chain of SIK (P57059 whole entry): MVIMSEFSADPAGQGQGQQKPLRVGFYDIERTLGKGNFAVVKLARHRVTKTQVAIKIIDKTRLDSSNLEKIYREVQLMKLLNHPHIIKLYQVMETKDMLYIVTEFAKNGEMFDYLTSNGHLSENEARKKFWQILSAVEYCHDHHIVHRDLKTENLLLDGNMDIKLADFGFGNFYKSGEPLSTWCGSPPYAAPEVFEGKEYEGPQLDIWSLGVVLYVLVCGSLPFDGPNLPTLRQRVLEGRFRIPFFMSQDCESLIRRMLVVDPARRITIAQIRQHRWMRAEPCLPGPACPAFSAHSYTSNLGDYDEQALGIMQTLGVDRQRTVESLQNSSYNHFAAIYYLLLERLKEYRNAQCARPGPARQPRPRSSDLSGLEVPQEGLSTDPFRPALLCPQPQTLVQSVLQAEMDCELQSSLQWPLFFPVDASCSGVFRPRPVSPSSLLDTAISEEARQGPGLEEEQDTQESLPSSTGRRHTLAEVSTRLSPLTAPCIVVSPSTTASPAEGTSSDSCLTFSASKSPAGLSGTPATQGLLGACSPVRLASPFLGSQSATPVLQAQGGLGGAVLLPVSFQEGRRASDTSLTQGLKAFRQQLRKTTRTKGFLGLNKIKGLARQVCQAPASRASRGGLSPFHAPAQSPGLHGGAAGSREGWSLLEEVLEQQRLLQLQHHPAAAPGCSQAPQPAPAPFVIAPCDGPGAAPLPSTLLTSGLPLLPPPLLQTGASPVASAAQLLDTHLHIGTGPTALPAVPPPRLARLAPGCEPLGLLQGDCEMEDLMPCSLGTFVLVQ
# Chain of FGFR2 (P21802 22-821): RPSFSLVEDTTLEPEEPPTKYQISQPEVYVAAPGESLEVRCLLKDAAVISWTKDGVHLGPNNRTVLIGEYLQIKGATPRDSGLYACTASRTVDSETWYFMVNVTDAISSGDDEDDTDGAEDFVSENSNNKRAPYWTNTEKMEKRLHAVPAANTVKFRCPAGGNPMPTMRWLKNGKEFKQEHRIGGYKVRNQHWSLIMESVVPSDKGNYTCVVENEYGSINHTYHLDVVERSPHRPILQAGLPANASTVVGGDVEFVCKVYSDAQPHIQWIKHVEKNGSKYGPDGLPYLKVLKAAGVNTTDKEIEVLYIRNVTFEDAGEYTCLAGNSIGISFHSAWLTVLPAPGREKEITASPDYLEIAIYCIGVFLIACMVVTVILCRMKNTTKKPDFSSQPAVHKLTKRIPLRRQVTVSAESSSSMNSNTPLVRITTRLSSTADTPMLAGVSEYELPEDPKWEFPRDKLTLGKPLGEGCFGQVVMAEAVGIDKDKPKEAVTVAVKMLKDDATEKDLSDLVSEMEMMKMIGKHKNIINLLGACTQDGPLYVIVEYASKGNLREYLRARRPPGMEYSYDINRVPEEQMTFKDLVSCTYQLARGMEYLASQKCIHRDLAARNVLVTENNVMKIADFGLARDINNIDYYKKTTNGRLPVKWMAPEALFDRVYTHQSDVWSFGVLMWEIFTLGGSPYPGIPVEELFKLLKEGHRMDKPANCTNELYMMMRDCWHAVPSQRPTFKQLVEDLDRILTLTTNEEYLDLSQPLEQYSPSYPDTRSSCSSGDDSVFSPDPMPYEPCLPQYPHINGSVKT
compound,measurement,setting,value
CC1(C)CCC2=C(O1)c1ccccc1C(=O)C2=O [β-Lapachone],IC50,15-LO,> 30 µM
same,inhibition at 5 µM,"15-LO-2; n = 2, read-out: % inhibition of control values, Mean",-12.9%
same,inhibition at 5 µM,"15-LO-2; read-out: % inhibition of control values, 1st measure",-12%
same,inhibition at 5 µM,"15-LO-2; read-out: % inhibition of control values, 2nd measure",-13.8%
same,inhibition at 150 µM,PLK1; [1],60%
same,inhibition at 150 µM,PLK1; [2],61.1%
same,inhibition at 150 µM,PLK1; [3],58.9%
same,inhibition at 150 µM,CDK2; [1],78.2%
same,inhibition at 150 µM,CDK2; [2],79.4%
same,inhibition at 150 µM,CDK2; [3],77.1%
same,inhibition at 150 µM,FGFR2; [4],44.8%
same,inhibition at 150 µM,FGFR2; [5],55.2%
same,inhibition at 150 µM,FGFR2; [6],50%
same,inhibition at 150 µM,SIK; [4],41.8%
same,inhibition at 150 µM,SIK; [5],40.3%
same,inhibition at 150 µM,SIK; [6],41%
same,Kb,EP3,22 µM
same,ligand efficiency (LE),EP3; EP3,0.36
same,IC50,"EP3; Experimental –log(IC50 or KD), EP3",20 µM
same,IC50,"EP3; IC50, EP3 concentration–inhibition curve, n = 2",63 µM
same,IC50,"5-LO; IC50 (5-LO), intact human neutrophils, without DTT, n = 3",8.6 µM
same,IC50,"5-LO; IC50, intact human neutrophils supplemented with 1 mM DTT, n = 4",0.42 µM
